Data taken from patent US20260146046A1, “BICYCLIC FERROPORTIN INHIBITORS” (Vifor (International) AG, priority 2022, published 2026).

Target: T1, ferroportin (Fpn) (Mus musculus, UniProt Q9JHI9)
T1 construct: endogenous in cells; host or cells: J774 mouse macrophage cell line, induced with Fe(III)NTA
T1 sequence (Q9JHI9 1-570): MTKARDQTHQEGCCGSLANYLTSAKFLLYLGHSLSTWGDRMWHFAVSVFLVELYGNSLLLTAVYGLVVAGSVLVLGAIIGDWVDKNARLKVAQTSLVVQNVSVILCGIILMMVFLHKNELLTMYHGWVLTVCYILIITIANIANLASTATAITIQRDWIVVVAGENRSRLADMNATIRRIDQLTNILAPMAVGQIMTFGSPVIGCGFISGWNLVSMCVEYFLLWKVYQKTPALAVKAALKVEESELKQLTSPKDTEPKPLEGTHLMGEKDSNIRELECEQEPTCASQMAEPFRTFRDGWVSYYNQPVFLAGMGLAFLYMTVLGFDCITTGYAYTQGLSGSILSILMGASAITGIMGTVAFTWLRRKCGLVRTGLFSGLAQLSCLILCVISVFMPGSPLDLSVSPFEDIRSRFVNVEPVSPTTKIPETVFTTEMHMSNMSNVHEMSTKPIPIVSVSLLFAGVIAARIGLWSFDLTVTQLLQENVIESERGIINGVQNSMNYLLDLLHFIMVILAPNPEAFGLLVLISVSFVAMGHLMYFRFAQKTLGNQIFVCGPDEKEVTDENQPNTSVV
Assay: Hepcidin Internalization Assay (J774)
Assay type: cell-based
Conditions: J774 cells, 25 nM TMR-hepcidin, 2 hours; average of multiple measurements; read-out: Average (AVE) IC50 of Fpn inhibitors in the hepcidin internalization assay
From the text: This cellular assay allows quantification of the binding of hepcidin to ferroportin (Fpn) through microscopic detection of internalization of a fluorescently labeled hepcidin into J774 cells. […] Binding of hepcidin to Fpn triggers internalization and degradation of both hepcidin and Fpn. […] Therefore, microscopic detection of cell-associated TMR fluorescence is a measure of hepcidin binding to Fpn and internalization of hepcidin and Fpn. If TMR-hepcidin is prevented from binding to Fpn, cellular TMR fluorescence remains low (Durrenberger et al, 2013). The effect of small molecular weight Fpn inhibitor compounds in this assay was evaluated in vitro as described below. […] Cat. 655090) and grown at 37° C. with 5% CO2. After overnight incubation, cells were washed 3 times with pre-warmed DMEM w/o phenol red, 30 μl/well of DMEM w/o phenol red was added after the final wash and 10 μl/well of dilution series of test compounds were added in triplicates. […] Cells were incubated in a total volume of 50 μl at 37° C. with 5% CO2 for 2 hours, then Hoechst 33342 dye was added to a final concentration of 0.5 μg/ml to stain nuclei and further incubated for 10 min. at 37° C. with 5% CO2. […] After removal of the paraformaldehyde solution, cells were washed 3 times with PBS leaving 100 μl per well and the plates were sealed with foil plate seal. […] The acquired image data was analysed with the […] analysis software. […] IC50 values were calculated with the Sum(Mean) raw data using “log(inhibitor) vs. response” curve fitting of Prism 5 software (GraphPad Software Inc., version 5.02). For each data set the fit of the “log(inhibitor) vs. response (three parameters)” model was compared to the fit of the “log(inhibitor) vs. response-Variable slope (four parameters)” model and the IC50 data of the preferred model was used.

Compound	IC50
COCCn1c(CCNCCc2nc3c(NCc4ncccc4F)nccc3o2)nc2cc3c(cc21)OCCO3 [Example Compound No. 7, N-((3-fluoropyridin-2-yl)methyl)-2-(2-((2-(1-(2-methoxyethyl)-6,7-dihydro-1H-[1,4]dioxino-[2′,3′:4,5]benzo[1,2-d]imidazol-2-yl)ethyl)amino)ethyl)oxazolo[4,5-c]pyridin-4-amine]	83 nM
Fc1cccnc1CNc1nccc2oc(CCNCCc3nc4cc5c(cc4n3CCN3CCOCC3)OCCO5)nc12 [Example Compound No. 9, N-((3-fluoropyridin-2-yl)methyl)-2-(2-((2-(1-(2-morpholinoethyl)-6,7-dihydro-1H-[1,4]dioxino[2′,3′:4,5]benzo[1,2-d]imidazol-2-yl)ethyl)amino)ethyl)oxazolo[4,5-c]pyridin-4-amine]	827 nM
Fc1cccnc1CNc1nccc2oc(CCNCCc3nc4ccccc4n3Cc3cccc(Cl)c3)nc12 [Example Compound No. 12, 2-(2-((2-(1-(3-chlorobenzyl)-1H-benzo[d]imidazol-2-yl)ethyl)amino)ethyl)-N-((3-fluoropyridin-2-yl)methyl)oxazolo[4,5-c]pyridin-4-amine]	28 nM
CN(C)CCn1c(CCNCCc2nc3c(NCc4ncccc4F)nccc3o2)nc2cc3c(cc21)OCCO3 [Example Compound No. 14, 2-(2-((2-(1-(2-(dimethylamino)ethyl)-6,7-dihydro-1H-[1,4]dioxino[2′,3′:4,5]benzo[1,2-d]imidazol-2-yl)ethyl)amino)ethyl)-N-((3-fluoropyridin-2-yl)methyl)oxazolo[4,5-c]pyridin-4-amine]	810 nM
Fc1cccnc1CNc1nccc2oc(CCNCCc3nc4ccccc4n3Cc3ccccn3)nc12 [Example Compound No. 15, N-((3-fluoropyridin-2-yl)methyl)-2-(2-((2-(1-(pyridin-2-ylmethyl)-1H-benzo[d]imidazol-2-yl)ethyl)amino)ethyl)oxazolo[4,5-c]pyridin-4-amine]	9500 nM
Fc1cccnc1CNc1nccc2oc(CCNCCc3nc4ccccc4n3CCc3ccccc3)nc12 [Example Compound No. 16, N-((3-fluoropyridin-2-yl)methyl)-2-(2-((2-(1-phenethyl-1H-benzo[d]imidazol-2-yl)ethyl)amino)ethyl)oxazolo[4,5-c]pyridin-4-amine]	40200 nM
Fc1cccnc1CNc1nccc2oc(CCNCCc3nc4ccccc4n3-c3ccccc3)nc12 [Example Compound No. 17, N-((3-fluoropyridin-2-yl)methyl)-2-(2-((2-(1-phenyl-1H-benzo[d]imidazol-2-yl)ethyl)amino)ethyl)oxazolo[4,5-c]pyridin-4-amine]	25 nM
CN1CCN(CCn2c(CCNCCc3nc4c(NCc5ncccc5F)nccc4o3)nc3cc4c(cc32)OCCO4)CC1 [Example Compound No. 18, N-((3-fluoropyridin-2-yl)methyl)-2-(2-((2-(1-(2-(4-methylpiperazin-1-yl)ethyl)-6,7-dihydro-1H-[1,4]dioxino[2′,3′:4,5]benzo[1,2-d]imidazol-2-yl)ethyl)amino)ethyl)oxazolo[4,5-c]pyridin-4-amine]	20000 nM
CN(C)CCn1c(CCNCCc2nc3c(NCc4ncccc4F)nccc3o2)nc2ccccc21 [Example Compound No. 20, 2-(2-((2-(1-(2-(dimethylamino)ethyl)-1H-benzo[d]imidazol-2-yl)ethyl)amino)ethyl)-N-((3-fluoropyridin-2-yl)methyl)oxazolo[4,5-c]pyridin-4-amine]	20000 nM

The next molecules have a lower IC50 than those just listed; values first:

IC50	Compound
9 nM	COCCn1c(CCNCCc2nc3c(NCc4ncccc4F)nccc3o2)nc2ccccc21 [Example Compound No. 1, N-((3-fluoropyridin-2-yl)methyl)-2-(2-((2-(1-(2-methoxyethyl)-1H-benzo[d]imidazol-2-yl)ethyl)amino)ethyl)oxazolo[4,5-c]pyridin-4-amine]
15 nM	Fc1cccnc1CNc1nccc2oc(CCNCCc3nc4ccccc4n3CC3CC3)nc12 [Example Compound No. 2, 2-(2-((2-(1-(cyclopropylmethyl)-1H-benzo[d]imidazol-2-yl)ethyl)amino)ethyl)-N-((3-fluoropyridin-2-yl)methyl)oxazolo[4,5-c]pyridin-4-amine]
9 nM	COCCOCCn1c(CCNCCc2nc3c(NCc4ncccc4F)nccc3o2)nc2ccccc21 [Example Compound No. 3, N-((3-fluoropyridin-2-yl)methyl)-2-(2-((2-(1-(2-(2-methoxyethoxy)ethyl)-1H-benzo[d]imidazol-2-yl)ethyl)amino)ethyl)oxazolo[4,5-c]pyridin-4-amine]
4 nM	CC(C)OCCn1c(CCNCCc2nc3c(NCc4ncccc4F)nccc3o2)nc2ccccc21 [Example Compound No. 4, N-((3-fluoropyridin-2-yl)methyl)-2-(2-((2-(1-(2-isopropoxyethyl)-1H-benzo[d]imidazol-2-yl)ethyl)amino)ethyl)oxazolo[4,5-c]pyridin-4-amine]
7 nM	COCCn1c(CCN2CC(c3nc4c(NCc5ncccc5F)nccc4o3)C2)nc2ccccc21 [Example Compound No. 5, N-((3-fluoropyridin-2-yl)methyl)-2-(1-(2-(1-(2-methoxyethyl)-1H-benzo[d]imidazol-2-yl)ethyl)azetidin-3-yl)oxazolo[4,5-c]pyridin-4-amine]
11 nM	COCCOCCn1c(CCN2CC(c3nc4c(NCc5ncccc5F)nccc4o3)C2)nc2ccccc21 [Example Compound No. 6, N-((3-fluoropyridin-2-yl)methyl)-2-(1-(2-(1-(2-(2-methoxyethoxy)ethyl)-1H-benzo[d]imidazol-2-yl)ethyl)azetidin-3-yl)oxazolo[4,5-c]pyridin-4-amine]
7 nM	Fc1cccnc1CNc1nccc2oc(CCNCCc3nc4ccccc4n3CCN3CCOCC3)nc12 [Example Compound No. 8, N-((3-fluoropyridin-2-yl)methyl)-2-(2-((2-(1-(2-morpholinoethyl)-1H-benzo[d]imidazol-2-yl)ethyl)amino)ethyl)oxazolo[4,5-c]pyridin-4-amine]
8 nM	Fc1cccnc1CNc1nccc2oc(CCNCCc3nc4ccccc4n3Cc3ccccc3)nc12 [Example Compound No. 10, 2-(2-((2-(1-benzyl-1H-benzo[d]imidazol-2-yl)ethyl)amino)ethyl)-N-((3-fluoropyridin-2-yl)methyl)oxazolo[4,5-c]pyridin-4-amine]
5 nM	COc1cccc(Cn2c(CCNCCc3nc4c(NCc5ncccc5F)nccc4o3)nc3ccccc32)c1 [Example Compound No. 11, N-((3-fluoropyridin-2-yl)methyl)-2-(2-((2-(1-(3-methoxybenzyl)-1H-benzo[d]-imidazol-2-yl)ethyl)amino)ethyl)oxazolo[4,5-c]pyridin-4-amine]
5 nM	Fc1cccnc1CNc1nccc2oc(CCNCCc3nc4cc5c(cc4n3CC3CC3)OCCO5)nc12 [Example Compound No. 13, 2-(2-((2-(1-(cyclopropylmethyl)-6,7-dihydro-1H-[1,4]dioxino[2′,3′:4,5]benzo[1,2-d]-imidazol-2-yl)ethyl)amino)ethyl)-N-((3-fluoropyridin-2-yl)methyl)oxazolo[4,5-c]pyridin-4-amine]
18 nM	CCn1c(CCNCCc2nc3c(NCc4ncccc4F)nccc3o2)nc2ccccc21 [Example Compound No. 19, 2-(2-((2-(1-ethyl-1H-benzo[d]imidazol-2-yl)ethyl)amino)ethyl)-N-((3-fluoropyridin-2-yl)methyl)oxazolo[4,5-c]pyridin-4-amine]
